Reference: US20080038809A1, “ISOLATED LECTIN POLYPEPTIDES CONSISTING OF TRUNCATED […] UDP-GalNAc:POLYPEPTIDE N- ACETYLGALACTOSAMINYLTRANSFERASES” (GLYCOZYM APS, priority 2002, published 2008)

Assays:
[1] = biological target: T1, secreted soluble GalNAc-T4 (Homo sapiens, UniProt Q8N4A0); assay: Inhibition of secreted soluble GalNAc-T4 (sT4) binding to GalNAc-MUC1 glycopeptide, ELISA
T1 construct: 6xHis (N); thrombin cleavage site (N); T7 antibody site (N); made in house; host or cells: baculovirus (pAcGP67A), High Five insect cells
Protocol: (§1) Direct binding ELISA assay was developed as follows: Polystyrene microtiter plates (Maxisorb, Nunc, Denmark) were coated with peptides or enzymatically glycosylated glycopeptides in PBS overnight at 4° C. Plates were washed and blocked with 0.1% Tween20 and 0.2% BSA in PBS for 1 h at room temperature, followed by incubation with biotinylated proteins in PBS with 0.05% Tween20 for 2 h at room temperature. After four washes with PBS, plates were incubated with 1:2,000 dilution streptavidin-HRP (Sigma) in PBS for 30 min at room temperature and washed four times with PBS. Development was performed with 0.5 mg/ml o-phenylenediamine and 0.02% H2O2 at room temperature for 15 min, and reaction stopped by adding 100 μl/well of 0.5 N H2SO4. Competitive inhibition assays were done at end-point titers of GalNAc-transferase proteins with one hour preincubations with inhibitor.
(§2) Inhibition experiments were used to further define the binding specificity of GalNAc-T2 and -T4 secreted soluble enzymes as well as lectin domains compared to Helix Pomatia lectin (Table IV).

[2] = biological target: T2, secreted soluble GalNAc-T2 (Homo sapiens, UniProt Q10471); assay: Inhibition of secreted soluble GalNAc-T2 (sT2) binding to GalNAc-MUC1 glycopeptide, ELISA
T2 construct: 6xHis (N); thrombin cleavage site (N); T7 antibody site (N); made in house; host or cells: baculovirus (pAcGP67A), High Five insect cells
Protocol: as §1, §2

GalNAc-T4 lectin domain = biological target: T3, GalNAc-T4 lectin domain (Homo sapiens, UniProt Q8N4A0); assay: Inhibition of GalNAc-T4 lectin domain (T4ld) binding to GalNAc-MUC1 glycopeptide, ELISA
T3 construct: comprises amino acid residues 405-578 of GALNT4; made in house; host or cells: baculovirus (pAcGP67-A), virus made in Sf9, protein produced in High Five insect cells
Protocol: as §1
(§3) In binding studies using lectins without biotinylation antibodies to the HIS-tag and the T7-tag, or in some experiments antibodies raised to GalNAc-T2 and -T4 enzymes were used to detect binding.
as §2

[3] = biological target: human GalNAc-T2 (UDP-GalNAc:polypeptide N-acetylgalactosaminyltransferase T2), secreted soluble enzyme (sT2), wild type (Homo sapiens, UniProt Q10471); assay: biochemical; details: binding to GalNAc-MUC1 glycopeptide
Protocol: The pH of 1 ml purified protein (0.3 mg/ml) in PBS was adjusted to pH 9 with 1 M NaOH and 40 μl N-hydroxy-succinimidobiotin (Sigma) dissolved in DMF (10 mg/ml) was added. The solution was mixed end-over-end for 2 hours at room temperature, and dialyzed three times against PBS and an equal volume of glycerol was added. The biotinylated proteins were stored at −20° C. in 50% glycerol until use.
Glycopeptides were purified by C-18 reverse phase HPLC. Peptides were custom synthesized by Neosystems (Strasbourg). Biotinylated Helix Pomatia lectin (HPA) was from KemEnTec (Denmark). Anti-MUC1 HMFG2 monoclonal antibody was a generous gift from Joyce Taylor-Papadimitriou.
as §1, with “Development was performed with 0.5 mg/ml o-phenylenediamine and 0.02% H2O2 at room temperature for 15 min, and reaction stopped by adding 100 μl/well of 0.5 N H2SO4. Competitive inhibition assays were done at end-point titers of GalNAc-transferase proteins with one hour preincubations with inhibitor.” left out

GalNAc-T2 lectin domain = biological target: T4, GalNAc-T2 lectin domain (Homo sapiens, UniProt Q10471); assay: Inhibition of GalNAc-T2 lectin domain (T2ld) binding to GalNAc-MUC1 glycopeptide, ELISA
T4 construct: comprises amino acid residues 408-571 of GALNT2; made in house; host or cells: baculovirus (pAcGP67-A), virus made in Sf9, protein produced in High Five insect cells
T4 sequence (Q10471 408-571): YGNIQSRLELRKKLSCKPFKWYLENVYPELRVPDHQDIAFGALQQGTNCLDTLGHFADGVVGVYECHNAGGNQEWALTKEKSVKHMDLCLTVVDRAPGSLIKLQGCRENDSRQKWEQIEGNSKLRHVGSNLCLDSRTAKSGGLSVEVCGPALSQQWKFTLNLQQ
Protocol: as §1, §3, §2

[4] = system: unglycosylated MUC1 peptide; assay: Direct binding assay (ELISA) of biotinylated GalNAc-transferases to unglycosylated MUC1 peptide (FIG. 4); set-up: species or system human; details: coated at 1 μg/ml, biotinylated enzymes
Protocol: (§4) FIG. 4 is a plot of absorbance v. ligand dilution showing GalNAc-transferase binding to GalNAc-MUC1 glycopeptide. A direct binding assay (ELISA) mediated by the lectin domain was developed and validated with soluble secreted GalNAc-T4 and -T2 enzyme proteins. ELISA plates were coated with peptides or glycopeptides at 1 μg/ml, blocked with BSA, and incubated with biotinylated enzymes. After washing, bound enzyme proteins were detected with HRP-Streptavidin as described in detail in Example 2. Secreted soluble constructs of GalNAc-transferases which are enzymatically active may bind to (glyco)peptide substrates through their catalytic units as originally described for GalNAc-T2^32.
as §1, with “Development was performed with 0.5 mg/ml o-phenylenediamine and 0.02% H2O2 at room temperature for 15 min, and reaction stopped by adding 100 μl/well of 0.5 N H2SO4. Competitive inhibition assays were done at end-point titers of GalNAc-transferase proteins with one hour preincubations with inhibitor.” left out

GalNAc-MUC1 glycopeptide = assay: Direct binding assay (ELISA) of biotinylated GalNAc-transferases to GalNAc-MUC1 glycopeptide (FIG. 4); set-up: species or system human; details: coated at 1 μg/ml, biotinylated enzymes
Protocol: as §4
as §1, with “Development was performed with 0.5 mg/ml o-phenylenediamine and 0.02% H2O2 at room temperature for 15 min, and reaction stopped by adding 100 μl/well of 0.5 N H2SO4. Competitive inhibition assays were done at end-point titers of GalNAc-transferase proteins with one hour preincubations with inhibitor.” left out

T2 sequence (Q10471 52-571 limits assumed): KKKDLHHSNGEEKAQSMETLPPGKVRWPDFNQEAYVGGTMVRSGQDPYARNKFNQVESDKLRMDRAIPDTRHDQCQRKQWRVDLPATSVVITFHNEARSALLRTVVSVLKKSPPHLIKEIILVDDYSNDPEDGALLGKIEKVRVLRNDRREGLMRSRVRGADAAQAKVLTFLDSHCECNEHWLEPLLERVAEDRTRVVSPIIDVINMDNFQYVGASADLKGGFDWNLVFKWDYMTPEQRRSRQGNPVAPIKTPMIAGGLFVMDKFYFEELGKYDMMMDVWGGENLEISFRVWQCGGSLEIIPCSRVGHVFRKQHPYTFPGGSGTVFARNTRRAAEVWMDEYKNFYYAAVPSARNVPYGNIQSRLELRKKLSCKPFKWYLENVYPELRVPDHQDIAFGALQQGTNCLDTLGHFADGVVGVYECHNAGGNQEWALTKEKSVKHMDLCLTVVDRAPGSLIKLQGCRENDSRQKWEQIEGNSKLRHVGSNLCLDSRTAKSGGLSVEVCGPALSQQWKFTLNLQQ
T1 sequence (Q8N4A0 36-578 limits assumed): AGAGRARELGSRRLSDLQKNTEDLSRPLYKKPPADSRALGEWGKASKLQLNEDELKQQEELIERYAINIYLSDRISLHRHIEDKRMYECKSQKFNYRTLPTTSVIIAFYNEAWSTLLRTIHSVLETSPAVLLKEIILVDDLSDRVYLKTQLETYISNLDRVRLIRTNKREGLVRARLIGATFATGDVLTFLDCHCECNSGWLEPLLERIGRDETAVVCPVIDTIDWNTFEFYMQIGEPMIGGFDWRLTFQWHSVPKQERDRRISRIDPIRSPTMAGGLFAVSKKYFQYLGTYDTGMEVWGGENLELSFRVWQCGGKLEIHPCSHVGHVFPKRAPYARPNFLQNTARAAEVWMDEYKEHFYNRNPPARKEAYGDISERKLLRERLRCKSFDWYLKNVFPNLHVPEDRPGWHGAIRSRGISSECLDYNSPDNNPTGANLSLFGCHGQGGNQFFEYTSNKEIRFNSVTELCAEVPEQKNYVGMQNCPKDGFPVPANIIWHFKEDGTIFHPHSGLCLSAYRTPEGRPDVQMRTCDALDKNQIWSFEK
T3 sequence (Q8N4A0 405-578): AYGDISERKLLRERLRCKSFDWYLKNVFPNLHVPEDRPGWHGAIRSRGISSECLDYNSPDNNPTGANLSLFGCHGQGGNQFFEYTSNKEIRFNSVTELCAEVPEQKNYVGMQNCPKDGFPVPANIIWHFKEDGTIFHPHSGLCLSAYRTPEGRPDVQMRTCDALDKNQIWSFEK
human GalNAc-T2 (UDP-GalNAc:polypeptide N-acetylgalactosaminyltransferase T2), secreted soluble enzyme (sT2), wild type, sequence (Q10471 52-571 limits assumed): as the sequence (Q10471 52-571 limits assumed) above

IC50 [1]	IC50 [2]	binding to unglycosylated MUC1 peptide [4]	binding to GalNAc-MUC1 glycopeptide (GalNAc-MUC1 glycopeptide)	Compound	also measured
500 µM	7 mM			CC(=O)N[C@H]1[C@@H](Oc2ccccc2[N+](=O)[O-])O[C@H](CO)[C@H](O)[C@@H]1O [oNPαGalNAc]	IC50 (GalNAc-T4 lectin domain): 5 mM
				CC(=O)N[C@H]1[C@H](Oc2ccccc2[N+](=O)[O-])O[C@H](CO)[C@H](O)[C@@H]1O [oNPβGalNAc]	IC50 [3]: 10 mM
1000 µM	> 10 mM			CC(=O)N[C@H]1[C@@H](Oc2ccc([N+](=O)[O-])cc2)O[C@H](CO)[C@H](O)[C@@H]1O [pNPαGalNAc]	IC50 (GalNAc-T2 lectin domain): > 10 mM
		no significant binding	selectively bind	GalNAc-T2: soluble secreted human GalNAc-T2 enzyme protein, biotinylated	
		no significant binding	selectively bind	GalNAc-T4 wild type: soluble secreted human GalNAc-T4 enzyme protein, biotinylated	
